Data set [1] relates to Cloudman S91 mouse melanoma cell line. Nature of the data set: Melanin content of S91 cells after treatment with test compound. The class given is cell-based. The following applies: for induction of melanogenesis (in words): concentrations tested in Example 2. The procedure: The Cloudman S91 mouse melanoma cell line was obtained from American Type Culture Collection (ATCC). […] For testing propylene glycol and analogues for induction of melanogenesis, S91 cells were plated at 10^5 cells/35 mm dish in 10% calf serum. […] Cells were cultured for 6 days at 37° C. in 5% CO2 in a humidified incubator. Following this treatment period, cells were examined microscopically and the portion of dedifferentiated and differentiated cells was estimated.
Following this microscopic examination, cells were detached from dishes by trypsin. The time required for detachment by trypsin was recorded as an additional indicator of the phenotypic effects of test compounds. For each treatment, a subsample of cells was counted to determine the effects of treatment compounds on cellular proliferation. The remainder of cells were used for determination of melanin content. […] Absorbance of standards and samples was measured at 475 nm. Melanin was expressed as pg melanin/cell.

The subject of data set [2] is American short-haired guinea pigs. Description: Topical melanogenesis (pigmentation rating) in guinea pigs. On the set-up: Pigmentation Rating / Pigmentation Rating Background Corrected: scale not given here. The format is in vivo, guinea pig. To be noted: for melanogenesis in guinea pigs (in words): same relative body position; for relative melanogenesis rating (mean ±SE), scale 0-4: 25 μl twice per day for 5 days, rated two weeks after. The procedure: Compounds were tested for melanogenic activity in vivo by application to American short-haired guinea pigs. Treatment sites were created by removal of fur using Nair® brand depilatory. In the Table, the numbers presented are the relative melanogenesis rating (mean ±SE), and are arranged according to the relative location on the animal, with the head being to the left and the tail being to the right. Propylene glycol (PG=13.6M), 2,3-butanediol (2,3-BD=10.95M), and 1,2-cis-cyclopentanediol (1,2-cs-CPD=10.7M) were applied as full strength solutions. 3,3-dimethyl-1,2-butanediol (3,3-M-1,2-BD) was applied as a 4M solution dissolved in ethanol. Two weeks following cessation of treatments, the degree of pigmentation was subjectively rated according to the following scale:
In order to minimize the effects of dimunition of response from head to tails of animals, all future experiments were done using only treatment spots located towards the tails of animals (c and d in Table 7). Deemed as additionally beneficial, in this area of the animal differences of responsiveness to strong and weak inducers of pigmentation, as deduced from cell culture, were greatest. […] Pigmentation ratings were corrected for background (control treatment spots), normalized to 1M to account for the different amounts of each agent applied, and then normalized to results for 1,2-PG (Table 8). […] It is anticipated that further improvements in formulation will additionally improve responsiveness to 5-NBene-2,2-DM and other compounds in this invention.
In FIG. 5, a, b, c and d indicate treatment spots that transverse the anterior-posterior axis along the backs of guinea pigs.

In data set [3] the test system is Cloudman S91 mouse melanoma cell line. Nature of the data set: Microscopic morphology (differentiation) of S91 cells. The format is cell-based. As to the method: (§1) The Cloudman S91 mouse melanoma cell line was obtained from American Type Culture Collection (ATCC). Cells were cultured in Dulbecco's Modified Eagles Medium (DMEM) containing 10% calf serum, 2 mM L-glutamine, 10 U Penicillin/ml and 10 ug Streptomycin/ml according to a previously published protocol (Eller, et al., Proc. Natl. Acad. Sci. 93:1087-92. 1996). For testing propylene glycol and analogues for induction of melanogenesis, S91 cells were plated at 10^5 cells/35 mm dish in 10% calf serum. One day after plating, media was removed and replaced with media containing 2% calf serum and test compounds (Eller, et al., 1996). Cells were cultured for 6 days at 37° C. in 5% CO2 in a humidified incubator. Following this treatment period, cells were examined microscopically and the portion of dedifferentiated and differentiated cells was estimated. Previous studies have shown that dedifferentiated S91 cells have a rounded, spindly appearance while differentiated S91 cells have a flattened, cuboidal, multipolar and dendritic appearance (Orlow, et al., Exp. Cell Res. 191:209-218, 1990).

Data set [4] has the same test system. Description: Cell count (proliferation, toxicity) of treated S91 cells. The format is cell-based. As to the method:
as §1
(§2) Following this microscopic examination, cells were detached from dishes by trypsin. The time required for detachment by trypsin was recorded as an additional indicator of the phenotypic effects of test compounds. For each treatment, a subsample of cells was counted to determine the effects of treatment compounds on cellular proliferation. The remainder of cells were used for determination of melanin content. Melanin was extracted from cells by vortexing for 15 min in 1N NaOH. Standards were prepared by dissolving melanin (Sigma) in 1 N NaOH (Eller, et al., 1996). Absorbance of standards and samples was measured at 475 nm. Melanin was expressed as pg melanin/cell.

The test system is the same in data set [5]. Nature of the data set: Trypsinization detachment time of S91 cells. The class given is cell-based. As to the method: as §2
Setting [6] is: No Penetration Enhancer, concentrations as E85.

Molecules are shown by their SMILES.

As to `CC(CO)CO` [2-M-1,3-PG, 2-Methyl-1,3-Propanediol], the “Concentration Required for ≧2-fold Melanin Induction in S91 Cells” value in data set [1] was 50 mM. The “Pigmentation Rating Normalized to 1,2-PG” value in data set [2] (setting [6]) is 2.9 ± 0.4. Moreover, the “Pigmentation Rating Normalized to 1M” value in data set [2] (setting [6]) is given as 0.044 ± 0.006. Further, in data set [2] (No Penetration Enhancer, corrected for Nair control, concentrations as E85), the “Pigmentation Rating Background Corrected” value is 0.50 ± 0.07. Besides, the “Pigmentation Rating” value in data set [2] (No Penetration Enhancer, sites c and d, 13.61M 1,2-PG, 11.0M 2,3-M-2,3-BD, 11.3M 2-M-1,3-PG, 8.7M 1,2-cs-CPD, 4.0M 3,3-M-1,2-BD) is recorded as 0.58 ± 0.08. In addition, the “melanogenesis in guinea pigs (in words)” value in data set [2] is “only slightly better melanogenic agents than propylene glycol”. The “relative melanogenesis rating (mean ±SE), scale 0-4” value is listed as 1.25 ± 0.52 in data set [2] (site a (head), PG 13.6M, 2,3-BD 10.95M, 1,2-cs-CPD 10.7M full strength, 3,3-M-1,2-BD 4M in ethanol) and 0.58 ± 0.08^2 in data set [2] (site c, full strength, 3,3-M-1,2-BD 4M in ethanol).
Regarding `O=C1CCCN1` [2-pyrrolidone], in data set [1] (range of concentrations up to a toxic dose), the “melanogenesis in S91 cells (≧2-fold increase = significant)” value is “did not induce significant (≧2-fold increase) melanogenesis”. The “morphological differentiation of S91 cells” value in data set [3] is given as “profound morphological differentiation”.
For `CC(O)CCO` (stereo not shown) [BD-1,3, 1,3-butanediol], the “pg Melanin/Cell” value in data set [1] (50 mM) stood at 15.5 pg Melanin/Cell; in data set [1] (150 mM) it was 18.1 pg Melanin/Cell. The “ug Melanin” value in data set [1] (50 mM) worked out at 0.99 µg; in data set [1] (150 mM), 0.87 µg. Besides, the “Cells (×10^6)” value was 0.064 ×10^6 in data set [4] (50 mM) and 0.048 ×10^6 in data set [4] (150 mM). The “reduction of cell numbers” value in data set [4] (150 mM) is given as “one-third”. Besides, the figures for the “Morphology Flattened Cuboidal” value in data set [3] (50 mM) and in data set [3] (150 mM) were 75% and 100%, respectively. Further, the “Morphology Rounded Spindly” value in data set [3] (50 mM) is 25%. For the same compound, the results for the “Trypsinization Detachment Time” value in data set [5] (50 mM) and in data set [5] (150 mM) were 3 min and 6 min, respectively.
In the case of `CC(O)C(C)O` (stereo not shown) [BD-2,3, 2,3-butanediol], the “Concentration Required for ≧2-fold Melanin Induction in S91 Cells” value in data set [1] is on record as 100 mM. Also, the results for the “pg Melanin/Cell” value in data set [1] (50 mM) and in data set [1] (150 mM) were 15.6 pg Melanin/Cell and 23.8 pg Melanin/Cell, respectively. The “ug Melanin” value in data set [1] (50 mM) was 1.12 µg; in data set [1] (150 mM), 0.95 µg. The “Cells (×10^6)” value in data set [4] (50 mM) was 0.072 ×10^6; in data set [4] (150 mM), 0.040 ×10^6. Moreover, in data set [4] (150 mM), the “reduction of cell numbers” value was “one-third”. The “Morphology Flattened Cuboidal” value in data set [3] (50 mM) was 75%; in data set [3] (150 mM), 100%. In addition, in data set [3] (50 mM), the “Morphology Rounded Spindly” value was found to be 25%. Besides, the “Trypsinization Detachment Time” value was determined as 3 min in data set [5] (50 mM) and 9 min in data set [5] (150 mM). Also, the “melanogenesis in guinea pigs (in words)” value in data set [2] is “only slightly better melanogenic agents than propylene glycol”. The “relative melanogenesis rating (mean ±SE), scale 0-4” value is on record as 1.33 ± 0.17^2 in data set [2] (site b, full strength solutions) and 0.25 ± 0.14 in data set [2] (site d (tail), full strength solutions).
As for `CCO` [ETOH, Ethanol], the “pg Melanin/Cell” value in data set [1] (1.0% (170 mM)) is given as 11.0 pg Melanin/Cell; in data set [1] (2.0% (340 mM)), 12.5 pg Melanin/Cell; in data set [1] (5.0% (850 mM)), 5.3 pg Melanin/Cell. In addition, the “ug Melanin” value in data set [1] (1.0% (170 mM)) stood at 1.14 µg; in data set [1] (2.0% (340 mM)), 1.25 µg; in data set [1] (5.0% (850 mM)), 0.17 µg. For the same compound, in data set [1], the “induction of melanogenesis (in words)” value is listed as “did not induce melanogenesis”. Besides, the effect on cells result in data set [4] (340 mM) is reported as “no effect on cells”. Moreover, the “toxicity (low cell survival)” value in data set [4] (850 mM) is “toxic”. The “Cells (×10^6)” value in data set [4] (1.0% (170 mM)) is given as 0.104 ×10^6; in data set [4] (2.0% (340 mM)), 0.100 ×10^6; in data set [4] (5.0% (850 mM)), 0.032 ×10^6. Besides, the “Morphology Rounded Spindly” value in data set [3] (1.0% (170 mM)), in data set [3] (2.0% (340 mM)) and in data set [3] (5.0% (850 mM)) was 100% in each case. In addition, the “Trypsinization Detachment Time” value in data set [5] (1.0% (170 mM)), in data set [5] (2.0% (340 mM)) and in data set [5] (5.0% (850 mM)) was 3 min in each case.
As to `OCC(O)CO` [G, Glycerol], the “pg Melanin/Cell” value in data set [1] (50 mM) is listed as 11.2 pg Melanin/Cell; in data set [1] (150 mM), 13.0 pg Melanin/Cell. The entries for the “ug Melanin” value in data set [1] (50 mM) and in data set [1] (150 mM) were 1.03 µg and 1.09 µg, respectively. The “induction of melanogenesis (in words)” value in data set [1] was “only a slight effect on melanogenesis and differentiation”. The “Cells (×10^6)” value is 0.092 ×10^6 in data set [4] (50 mM) and 0.084 ×10^6 in data set [4] (150 mM). Further, the “Morphology Rounded Spindly” value in data set [3] (50 mM) is on record as 100%; in data set [3] (150 mM) it was 75%. Moreover, the “Morphology Flattened Cuboidal” value in data set [3] (150 mM) is on record as 25%. In addition, the “Trypsinization Detachment Time” value in data set [5] (50 mM) and in data set [5] (150 mM) was 3 min throughout.
In the case of `OCCCO` [PG-1,3, 1,3-propanediol], the “pg Melanin/Cell” value in data set [1] (50 mM) is recorded as 20.4 pg Melanin/Cell; in data set [1] (150 mM) it was 23.6 pg Melanin/Cell. Also, the figures for the “ug Melanin” value in data set [1] (50 mM) and in data set [1] (150 mM) were 1.31 µg and 1.04 µg, respectively. Besides, the “Cells (×10^6)” value in data set [4] (50 mM) was 0.064 ×10^6; in data set [4] (150 mM), 0.044 ×10^6. The “reduction of cell numbers” value in data set [4] (150 mM) is “one-third”. The “Morphology Flattened Cuboidal” value in data set [3] (50 mM) is 25%; in data set [3] (150 mM), 50%. Further, the “Morphology Rounded Spindly” value in data set [3] (50 mM) is listed as 75%; in data set [3] (150 mM), 50%. For the same compound, the results for the “Trypsinization Detachment Time” value in data set [5] (50 mM) and in data set [5] (150 mM) were 3 min and 6 min, respectively.
Take `C[C@H](O)CO` [PG-S-1,2, (S)-(+)-1,2-Propanediol]: the “pg Melanin/Cell” value turned out to be 17.1 pg Melanin/Cell in data set [1] (50 mM) and 25.5 pg Melanin/Cell in data set [1] (150 mM). For the same compound, the “ug Melanin” value came out at 1.51 µg in data set [1] (50 mM) and 2.04 µg in data set [1] (150 mM). Moreover, the “Cells (×10^6)” value is on record as 0.088 ×10^6 in data set [4] (50 mM) and 0.080 ×10^6 in data set [4] (150 mM). Further, the “effect on cell proliferation” value in data set [4] (levels used in this experiment (50 and 150 mM)) is given as “no reduction of cell proliferation”. Moreover, the “Morphology Flattened Cuboidal” value is recorded as 25% in data set [3] (50 mM) and 50% in data set [3] (150 mM). For the same compound, the “Morphology Rounded Spindly” value came out at 75% in data set [3] (50 mM) and 50% in data set [3] (150 mM). Also, the “Trypsinization Detachment Time” value is listed as 3 min in data set [5] (50 mM) and 6 min in data set [5] (150 mM).

Source of the values: patent US7250157B2, “Dermatological compositions and methods” (Applied Genetics Incorporated Dermatics, priority 1996, dated 2007).
